# Where “and” joins values, the source holds several entries; their conditions need not be identical. Equal values may be shown once.
# Test system: L-amino acid oxidase
# Experiment: Km value of L-amino acid oxidase
# Format: biochemical, Colletotrichum sp. M5073
# Conditions: upon L-leucine
row,SMILES,Km [µM]
1,CC(C)C[C@H](N)C(=O)O [L-Leucine],170

# Test system: L-amino acid oxidase
# Experiment: Substrate specificity of L-amino acid oxidase (enzyme activity measurement, H2O2 colorimetry)
# Format: biochemical, Colletotrichum sp. M5073
# Conditions: not given
# Procedure: (§1) 0.9 ml of a reaction solution of the following composition is placed in a small test tube and warmed to 37° C.
# (§2) 0.1 ml of a liquid containing L-amino acid oxidase is added thereto and reaction continued for exactly for 10 minutes at 37° C. The reaction was terminated by adding 2.0 ml of ethanol. Then, the amount of hydrogen peroxide formed is colorimetrically determined from absorbance measured at 480 nm. The enzymatic activity is determined from the amount of the hydrogen peroxide formed with the following equation: […]
# (§3) The amount of the enzyme which produces 1μ mole of hydrogen peroxide at 37° C. in one minute is defined as one unit (1 U).
# Enzymatic activities of the enzyme on various substrates as shown in the Table 1 below are measured with the same procedures as the measurement of the enzyme activity by using 5 m mole of the substrate and 0.007 U of the enzyme.
row,SMILES,Enzyme acts upon substrate
1,CC(C)C[C@H](N)C(=O)O [L-Leucine],acts upon

# Same assay, conditions: 5 m mole of the substrate, 0.007 U of the enzyme; 37° C., 10 minutes; L-Leucine = 100
row,SMILES,Relative activity (%) on substrate
1,CC[C@H](C)[C@H](N)C(=O)O (racemic) [DL-Isoleucine],15.3%
2,NC(Cc1c[nH]c2ccccc12)C(=O)O (racemic) [DL-Tryptophan],27.1%
3,C[C@@H](N)C(=O)O [D-Alanine],0.0%
4,N[C@H](Cc1ccccc1)C(=O)O [D-Phenylalanine],0.0%
5,C[C@H](N)C(=O)O [L-Alanine],12.3%
6,N=C(N)NCCC[C@H](N)C(=O)O [L-Arginine],39.9%
7,N[C@@H](CC(=O)O)C(=O)O [L-Aspartic acid],0.0%
8,N[C@@H](CS)C(=O)O [L-Cysteine],6.4% and 0.0%
9,N[C@@H](CCC(=O)O)C(=O)O [L-Glutamic acid],0.0%
10,NCC(=O)O [L-Glycin],0.0%
11,N[C@@H](Cc1c[nH]cn1)C(=O)O [L-Histidine],11.8%
12,CC[C@H](C)[C@H](N)C(=O)O [L-Isoleucine],29.1%
13,CC(C)C[C@H](N)C(=O)O [L-Leucine],100.0%
14,NCCCC[C@H](N)C(=O)O [L-Lysine],29.6%
15,CSCC[C@H](N)C(=O)O [L-Methionine],93.6%
16,N[C@@H](Cc1ccccc1)C(=O)O [L-Phenylalanine],70.0%
17,N[C@@H](CO)C(=O)O [L-Serine],0.0%
18,N[C@@H](Cc1ccc(O)cc1)C(=O)O [L-Tyrosine],22.2%

# Test system: L-amino acid oxidase
# Experiment: Inhibition and activation of L-amino acid oxidase by metallic ions or other additives
# Format: biochemical, Colletotrichum sp. M5073
# Conditions: 1 mM additive, 0.01 U of the enzyme; None = 100
# Procedure: as §1, §2, §3
# The enzymatic activities of the enzyme are measured with the same procedures as the measurement of the enzyme activity using 0.01 U of the enzyme, and adding 1 mM of various metallic ions or other additives as shown in Table 2 below to the reaction solution. Cyano ion has a strong inhibiting effect on the enzyme and no ion is found to have an activating effect on the enzyme.
row,SMILES,Relative activity (%) with additive [%]
1,[Ba+2].[Cl-].[Cl-] [BaCl2],97.1
2,[Ca+2].[Cl-].[Cl-] [CaCl2],95.4
3,[Cl-].[Cl-].[Co+2] [CoCl2],50.6
4,O=C(O)CN(CCN(CC(=O)O)CC(=O)O)CC(=O)O [EDTA],100
5,[Cl-].[Li+] [LiCl],97.5
6,[Cl-].[Cl-].[Mg+2] [MgCl2],99.2
7,[Cl][Mn][Cl] [MnCl2],97.1
8,Cl.N [NH4 Cl],97.1
9,[F-].[Na+] [NaF],97.9
10,[N-]=[N+]=[N-].[Na+] [NaN3],100
11,[Cl-].[Cl-].[Zn+2] [ZnCl2],94.2
